Reference: paper PMC7531004, “Discovery of gramicidin A analogues with altered activities by multidimensional screening of a one-bead-one-compound library” (Nature Communications, 2020)
Where a SMILES comes first, the peptide text is derived from it. [ ]: non-standard residue; d: D form. The star is where a group is joined. NHCH2CH2OH = OCCN*; For = O=C*

Columns and labels:
[1] = tested on: P388 mouse leukemia cells; details: 92 h
In short: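 First, library peptide stocks are diluted 250-fold in RPMI1640 with 10% heat-inactivated FBS. Next, they are mixed with P388 cells to give 1 × 10^4 cells/mL and incubated 92 h at 37 °C, 5% CO2. Finally, viability (%) is scored by WST-1 absorbance at 415 nm.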

[2] = tested on: Streptococcus pyogenes SSI-9; assay: Antibacterial activity assay of bead-derived peptides (three concentrations); format: cell-based; set-up: key: +++: inhibition by the 640-fold diluted peptide solution; ++: inhibition by the 160-fold diluted solution; +: inhibition by the 40-fold diluted solution; -: no inhibition; details: S. pyogenes, bead-derived peptide solution, three concentrations
In short: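 Bead-derived library peptide stocks in DMSO were tested undiluted and after 4- and 16-fold DMSO dilution against S. pyogenes SSI-9 (2 × 10^5 CFU/well) in cation-adjusted Mueller Hinton Broth with 5% laked horse blood. After 18 h at 37 °C, wells were scored for precipitation of grown cells.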

[3] = H+/Na+ transport assay of bead-derived peptides (one-point); format: biochemical; set-up: key: relative activity; mean of two control wells = 1.00; details: bead-derived peptide solution, EYPC/EYPG LUVs;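 also: relative to parent gramicidin A activity set to 1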
In short: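 Pyranine (1.0 mM)-loaded LUVs containing egg yolk phosphatidylglycerol were prepared by film hydration, sonication and extrusion, then mixed with diluted bead-derived peptide in 96-well format and vortexed 30 min at room temperature. Fluorescence was normalized between untreated LUVs (0%) and Triton X-100 lysis (100%).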

SMILES	cell viability/% [1]	antibacterial activity [2]	H+/Na+ transport activity normalized against the value of 1 (1.00) [3]
CNC(=O)C[C@@H](NC(=O)[C@H](Cc1c[nH]c2ccccc12)NC(=O)[C@H](NC(=O)[C@H](Cc1c[nH]c2ccccc12)NC(=O)[C@@H](CC(C)C)NC(=O)[C@H](Cc1c[nH]c2ccccc12)NC(=O)[C@@H](CC(C)C)NC(=O)[C@@H](NC(=O)[C@@H](CC(C)C)NC(=O)[C@H](C)NC(=O)[C@@H](CC(C)C)NC(=O)[C@H](C)NC(=O)CNC(=O)[C@@H](NC=O)C(C)C)C(C)C)C(C)C)C(=O)N[C@@H](Cc1c[nH]c2ccccc12)C(=O)NCCO [compound 2764] (For-VGA[dL]A[dL]V[dL]W[dL]W[dV]W[dD](NHMe)W-NHCH2CH2OH)	75.7%	-	1.12
CC(C)C[C@@H](NC(=O)[C@H](C)NC(=O)[C@H](NC(=O)[C@H](C)NC(=O)CNC(=O)[C@@H](NC=O)C(C)C)C(C)C)C(=O)N[C@H](C(=O)N[C@@H](C(=O)N[C@@H](Cc1c[nH]c2ccccc12)C(=O)N[C@@H](C(=O)N[C@@H](Cc1c[nH]c2ccccc12)C(=O)N[C@H](CC(C)C)C(=O)N[C@@H](Cc1c[nH]c2ccccc12)C(=O)N[C@H](CC(C)C)C(=O)N[C@@H](Cc1c[nH]c2ccccc12)C(=O)NCCO)C(C)C)C(C)C)C(C)C [compound 5463] (For-VGA[dV]A[dL]V[dV]W[dV]W[dL]W[dL]W-NHCH2CH2OH)	100.0%	++	1.11
CC(C)C[C@@H](NC(=O)[C@H](Cc1c[nH]c2ccccc12)NC(=O)[C@@H](CC(C)C)NC(=O)[C@H](Cc1c[nH]c2ccccc12)NC(=O)[C@H](NC(=O)[C@H](Cc1c[nH]c2ccccc12)NC(=O)[C@@H](CC(C)C)NC(=O)[C@@H](NC(=O)[C@H](NC(=O)[C@H](C)NC(=O)[C@H](NC(=O)[C@H](C)NC(=O)CNC(=O)[C@@H](NC=O)C(C)C)C(C)C)C(C)C)C(C)C)C(C)C)C(=O)N[C@@H](Cc1c[nH]c2ccccc12)C(=O)NCCO [compound 12538] (For-VGA[dV]A[dV]V[dL]W[dV]W[dL]W[dL]W-NHCH2CH2OH)	2.1%	-	1.01
CC(C)C[C@@H](NC(=O)[C@H](C)NC(=O)[C@H](NC(=O)[C@H](C)NC(=O)CNC(=O)[C@@H](NC=O)C(C)C)[C@H](C)O)C(=O)N[C@H](C(=O)N[C@H](CC(C)C)C(=O)N[C@@H](Cc1c[nH]c2ccccc12)C(=O)N[C@H](CC(C)C)C(=O)N[C@@H](Cc1c[nH]c2ccccc12)C(=O)N[C@@H](C(=O)N[C@@H](Cc1c[nH]c2ccccc12)C(=O)N[C@H](CC(C)C)C(=O)N[C@@H](Cc1c[nH]c2ccccc12)C(=O)NCCO)C(C)C)C(C)C [compound 5329] (For-VGA[dT]A[dL]V[dL]W[dL]W[dV]W[dL]W-NHCH2CH2OH)	100.0%	-	1.26
CC(C)C[C@@H](NC(=O)[C@H](C)NC(=O)[C@H](NC(=O)[C@H](C)NC(=O)CNC(=O)[C@@H](NC=O)C(C)C)[C@H](C)O)C(=O)N[C@H](C(=O)N[C@@H](C(=O)N[C@@H](Cc1c[nH]c2ccccc12)C(=O)N[C@@H](C(=O)N[C@@H](Cc1c[nH]c2ccccc12)C(=O)N[C@H](CC(C)C)C(=O)N[C@@H](Cc1c[nH]c2ccccc12)C(=O)N[C@H](CC(C)C)C(=O)N[C@@H](Cc1c[nH]c2ccccc12)C(=O)NCCO)C(C)C)C(C)C)C(C)C [compound 9112] (For-VGA[dT]A[dL]V[dV]W[dV]W[dL]W[dL]W-NHCH2CH2OH)	72.6%	-	1.10
CNC(=O)C[C@@H](NC(=O)[C@@H](NC(=O)[C@@H](CC(C)C)NC(=O)[C@H](C)NC(=O)[C@@H](CC(C)C)NC(=O)[C@H](C)NC(=O)CNC(=O)[C@@H](NC=O)C(C)C)C(C)C)C(=O)N[C@@H](Cc1c[nH]c2ccccc12)C(=O)N[C@H](CC(C)C)C(=O)N[C@@H](Cc1c[nH]c2ccccc12)C(=O)N[C@H](CC(C)C)C(=O)N[C@@H](Cc1c[nH]c2ccccc12)C(=O)N[C@@H](C(=O)N[C@@H](Cc1c[nH]c2ccccc12)C(=O)NCCO)C(C)C [compound 5491] (For-VGA[dL]A[dL]V[dD](NHMe)W[dL]W[dL]W[dV]W-NHCH2CH2OH)	100.0%	-	1.24
CC(C)C[C@@H](NC(=O)[C@H](C)NC(=O)CNC(=O)[C@@H](NC=O)C(C)C)C(=O)N[C@@H](C)C(=O)N[C@H](CC(C)C)C(=O)N[C@H](C(=O)N[C@@H](C(=O)N[C@@H](Cc1c[nH]c2ccccc12)C(=O)N[C@@H](C(=O)N[C@@H](Cc1c[nH]c2ccccc12)C(=O)N[C@@H](C(=O)N[C@@H](Cc1c[nH]c2ccccc12)C(=O)N[C@@H](C(=O)N[C@@H](Cc1c[nH]c2ccccc12)C(=O)NCCO)C(C)C)[C@H](C)O)C(C)C)C(C)C)C(C)C [compound 8749] (For-VGA[dL]A[dL]V[dV]W[dV]W[dT]W[dV]W-NHCH2CH2OH)	62.2%	-	1.05
CNC(=O)C[C@@H](NC(=O)[C@H](Cc1c[nH]c2ccccc12)NC(=O)[C@@H](CC(C)C)NC(=O)[C@@H](NC(=O)[C@@H](CC(C)C)NC(=O)[C@H](C)NC(=O)[C@H](NC(=O)[C@H](C)NC(=O)CNC(=O)[C@@H](NC=O)C(C)C)C(C)C)C(C)C)C(=O)N[C@@H](Cc1c[nH]c2ccccc12)C(=O)N[C@@H](C(=O)N[C@@H](Cc1c[nH]c2ccccc12)C(=O)N[C@@H](C(=O)N[C@@H](Cc1c[nH]c2ccccc12)C(=O)NCCO)C(C)C)C(C)C [compound 5380] (For-VGA[dV]A[dL]V[dL]W[dD](NHMe)W[dV]W[dV]W-NHCH2CH2OH)	100.0%	-	1.05
CC(C)C[C@@H](NC(=O)[C@H](C)NC(=O)CNC(=O)[C@@H](NC=O)C(C)C)C(=O)N[C@@H](C)C(=O)N[C@@H](C(=O)N[C@H](C(=O)N[C@@H](C(=O)N[C@@H](Cc1c[nH]c2ccccc12)C(=O)N[C@@H](C(=O)N[C@@H](Cc1c[nH]c2ccccc12)C(=O)N[C@@H](C(=O)N[C@@H](Cc1c[nH]c2ccccc12)C(=O)N[C@@H](C(=O)N[C@@H](Cc1c[nH]c2ccccc12)C(=O)NCCO)C(C)C)C(C)C)C(C)C)C(C)C)C(C)C)C(C)C [compound 9992] (For-VGA[dL]A[dV]V[dV]W[dV]W[dV]W[dV]W-NHCH2CH2OH)	100.0%	+	1.23
CNC(=O)C[C@@H](NC(=O)[C@@H](NC(=O)[C@H](NC(=O)[C@H](C)NC(=O)[C@H](NC(=O)[C@H](C)NC(=O)CNC(=O)[C@@H](NC=O)C(C)C)C(C)C)C(C)C)C(C)C)C(=O)N[C@@H](Cc1c[nH]c2ccccc12)C(=O)N[C@H](CC(C)C)C(=O)N[C@@H](Cc1c[nH]c2ccccc12)C(=O)N[C@H](CC(C)C)C(=O)N[C@@H](Cc1c[nH]c2ccccc12)C(=O)N[C@H](CC(C)C)C(=O)N[C@@H](Cc1c[nH]c2ccccc12)C(=O)NCCO [compound 6862] (For-VGA[dV]A[dV]V[dD](NHMe)W[dL]W[dL]W[dL]W-NHCH2CH2OH)	100.0%	-	1.31
CNC(=O)C[C@@H](NC(=O)[C@H](Cc1c[nH]c2ccccc12)NC(=O)[C@@H](CC(C)C)NC(=O)[C@H](Cc1c[nH]c2ccccc12)NC(=O)[C@@H](CC(C)C)NC(=O)[C@H](Cc1c[nH]c2ccccc12)NC(=O)[C@H](NC(=O)[C@@H](NC(=O)[C@H](NC(=O)[C@H](C)NC(=O)[C@@H](CC(C)C)NC(=O)[C@H](C)NC(=O)CNC(=O)[C@@H](NC=O)C(C)C)C(C)C)C(C)C)C(C)C)C(=O)N[C@@H](Cc1c[nH]c2ccccc12)C(=O)NCCO [compound 2020] (For-VGA[dL]A[dV]V[dV]W[dL]W[dL]W[dD](NHMe)W-NHCH2CH2OH)	100.0%	-	1.02
CNC(=O)C[C@@H](NC(=O)[C@@H](NC(=O)[C@H](NC(=O)[C@H](C)NC(=O)[C@@H](CC(C)C)NC(=O)[C@H](C)NC(=O)CNC(=O)[C@@H](NC=O)C(C)C)C(C)C)C(C)C)C(=O)N[C@@H](Cc1c[nH]c2ccccc12)C(=O)N[C@@H](C(=O)N[C@@H](Cc1c[nH]c2ccccc12)C(=O)N[C@H](CC(C)C)C(=O)N[C@@H](Cc1c[nH]c2ccccc12)C(=O)N[C@@H](C(=O)N[C@@H](Cc1c[nH]c2ccccc12)C(=O)NCCO)C(C)C)C(C)C [compound 8732] (For-VGA[dL]A[dV]V[dD](NHMe)W[dV]W[dL]W[dV]W-NHCH2CH2OH)	72.4%	-	1.11
CC(C)C[C@@H](NC(=O)[C@H](Cc1c[nH]c2ccccc12)NC(=O)[C@@H](CC(C)C)NC(=O)[C@@H](NC(=O)[C@H](NC(=O)[C@H](C)NC(=O)[C@H](NC(=O)[C@H](C)NC(=O)CNC(=O)[C@@H](NC=O)C(C)C)[C@H](C)O)C(C)C)C(C)C)C(=O)N[C@@H](Cc1c[nH]c2ccccc12)C(=O)N[C@H](CC(C)C)C(=O)N[C@@H](Cc1c[nH]c2ccccc12)C(=O)N[C@@H](C(=O)N[C@@H](Cc1c[nH]c2ccccc12)C(=O)NCCO)C(C)C [compound 11317] (For-VGA[dT]A[dV]V[dL]W[dL]W[dL]W[dV]W-NHCH2CH2OH)	42.1%	-	1.02
